Reference: PubChem BioAssay (NCI)
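A five-concentration, 48-hour dose response in 96-well plates underlies each endpoint, interpolated linearly between surrounding concentrations. At the TGI there is no net growth.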

Experiments:
Test in all cases: growth of human tumour cells (NCI), 48 h
TK-10 renal = test system: TK-10 renal
RXF 393 renal = test system: RXF 393 renal
OVCAR-5 ovarian = test system: OVCAR-5 ovarian
OVCAR-4 ovarian = test system: OVCAR-4 ovarian
MDA-MB-435 = test system: MDA-MB-435
PC-3 prostate = test system: PC-3 prostate
SNB-19 CNS = test system: SNB-19 CNS
HCC-2998 colon = test system: HCC-2998 colon
K-562 leukemia = test system: K-562 leukemia
UACC-257 melanoma = test system: UACC-257 melanoma
LOX IMVI melanoma = test system: LOX IMVI melanoma
UACC-62 melanoma = test system: UACC-62 melanoma
CCRF-CEM leukemia = test system: CCRF-CEM leukemia
SF-268 CNS = test system: SF-268 CNS
HOP-62 NSCLC = test system: HOP-62 NSCLC
HS 578T breast = test system: HS 578T breast
MOLT-4 leukemia = test system: MOLT-4 leukemia
OVCAR-3 ovarian = test system: OVCAR-3 ovarian
SK-MEL-5 melanoma = test system: SK-MEL-5 melanoma
DU-145 prostate = test system: DU-145 prostate
RPMI-8226 leukemia = test system: RPMI-8226 leukemia
786-0 renal = test system: 786-0 renal
SNB-75 CNS = test system: SNB-75 CNS
SF-295 CNS = test system: SF-295 CNS
MDA-MB-231 breast = test system: MDA-MB-231 breast
SK-MEL-2 melanoma = test system: SK-MEL-2 melanoma
MCF7 breast = test system: MCF7 breast
MDA-N = test system: MDA-N
OVCAR-8 ovarian = test system: OVCAR-8 ovarian
NCI-H23 lung = test system: NCI-H23 lung
NCI/ADR-RES ovarian = test system: NCI/ADR-RES ovarian
A498 renal = test system: A498 renal
NCI-H226 lung = test system: NCI-H226 lung
HOP-92 NSCLC = test system: HOP-92 NSCLC
HT29 colon = test system: HT29 colon
NCI-H460 lung = test system: NCI-H460 lung
SK-OV-3 ovarian = test system: SK-OV-3 ovarian
T-47D breast = test system: T-47D breast
ACHN renal = test system: ACHN renal
SF-539 CNS = test system: SF-539 CNS
A549 NSCLC = test system: A549 NSCLC
EKVX NSCLC = test system: EKVX NSCLC
IGROV1 ovarian = test system: IGROV1 ovarian
SK-MEL-28 melanoma = test system: SK-MEL-28 melanoma
HCT-116 colon = test system: HCT-116 colon
UO-31 renal = test system: UO-31 renal
M14 melanoma = test system: M14 melanoma
NCI-H522 lung = test system: NCI-H522 lung
HL-60(TB) leukemia = test system: HL-60(TB) leukemia
SN12C renal = test system: SN12C renal
KM12 colon = test system: KM12 colon
HCT-15 colon = test system: HCT-15 colon
SW-620 colon = test system: SW-620 colon
U251 CNS = test system: U251 CNS
COLO 205 colon = test system: COLO 205 colon

Measured: TGI

CC(=O)Oc1c(C)cc2c(c1C)C(C)CN2C(C)=O (stereo not given)
> 100 µM: all assays above
